Measured values as given in patent US20200022967A1, “Use of 2-carboxamide cycloamino urea derivatives in the treatment of EGFR dependent diseases or diseases that have acquired resistance to agents that target EGFR family members” (Novartis AG, priority 2010, published 2020).

Tests used:
[1] = Body weight change in BT474 xenograft mice (Example 1); format: in vivo; details: for mean body weight change: not significant; for mean change of body weight: 50 mg/kg p.o. once daily, p<0.05
Protocol: Tumor volumes were measured with calipers and determined according to the formula: length×diameter^2×π/6. […] Regressions (%) were calculated according to the formula ((mean tumor volume at end of treatment-mean tumor volume at start of treatment)/mean tumor volume at start of treatment)×100. Body weights and tumor volumes were recorded twice a week.
Where applicable, data is presented as mean±SEM. For all tests, the level of significance was set at p<0.05. For tumor volumes, comparisons between treatment groups and vehicle control group were done using one-way ANOVA followed by Dunnett's test. The level of significance of body weight change within a group between the start and the end of the treatment period was determined using a paired t-test. Comparisons of delta body weights between treatment and vehicle control groups were performed by a one-way ANOVA followed by a post hoc Dunnett's test.

HCC1954 = assay: Cell proliferation in HCC1954 breast cancer model; format: cell-based
NCI-N87 tumors = assay: NCI-N87 xenograft in CB17 SCID mice, Compound A alone and with lapatinib (Example 6); format: in vivo; details: for Median TTE: control 26.2
Protocol: The NCI-N87 cells were harvested with 5× trypsin. Eight days after tumor implantation (on Day 1 of the study), mice with an individual tumor volume of 88-196 mm^3 were sorted into 10 groups of ten mice with a group mean tumor volume of 143-149 mm^3.
Where applicable, data is presented as mean±SEM. Each animal was euthanized when its neoplasm reached the endpoint volume (1000 mm^3), or on the last day of the study (Day 59). Time to endpoint (TTE) is calculated by the equation: TTE=(log10(endpoint volume)−b)/m, where TTE is expressed in days, endpoint volume is in mm3, b is the intercept and m is the slope of the line obtained by linear regression of a log-transformed tumor growth data set. Treatment efficacy was determined from Tumor Growth Delay (TGD), which was defined as the increase in the median time to endpoint (TTE) for a treatment group compared to the control group (TGD=T−C), expressed in days, or as a percentage of the median TTE of the control group (% TGD=((T−C)/C)×100), wherein T=median TTE for a treatment group and C=median TTE for the designated control group.
Statistical and graphical analyses was performed with Prism 3.03 (GraphPad) for Windows. For all tests, the level of significance of differences was done using ANOVA, with Bartlett's test; and a post-hoc Dunnett's multiple comparison test compared the mean change for each drub-treated group to the mean for Group 1. Survival was analyzed by the Kaplan-Meier method. The logrank test was employed to analyze the significance of the difference between the overall survival experiences of two groups, based on time to endpoint (TTE) values. The two-tailed statistical analyses were conducted at P=0.05. Prism summarizes test results as not significant (ns) at P>0.05, significant (symbolized by “*”) at 0.01<P<0.05, very significant (symbolized by “**”) at 0.001<P<0.01, and extremely significant (symbolized by “***”) at P<0.001.

[2] = Group 2 (9 animals): Compound A 12.5 mg/kg p.o. once daily
[3] = Group 2: Compound A 12.5 mg/kg p.o. once daily
[4] = Group 3 (9 animals): Compound A 25 mg/kg p.o. once daily
[5] = Group 3: Compound A 25 mg/kg p.o. once daily

Cc1nc(NC(=O)N2CCC[C@H]2C(N)=O)sc1-c1ccnc(C(C)(C)C(F)(F)F)c1 [Compound A, (S)-Pyrrolidine-1,2-dicarboxylic acid 2-amide 1-({4-methyl-5-[2-(2,2,2-trifluoro-1,1-dimethyl-ethyl)-pyridin-4-yl]-thiazol-2-yl}-amide)]
mean body weight change ([1]; 12.5 mg/kg p.o. once daily): 1.4±1.2% | mean body weight change ([1]; 25 mg/kg p.o. once daily): −1.2±1.2% | mean change of body weight ([1]; first of the two experiments): 10.6±4.1% | mean change of body weight ([1]; second of the two experiments): 8.2±2.6% | cell death (HCC1954; HCC1954, overexpressed ErbB2): induces cell death | GI50 (HCC1954; HCC1954 breast cancer model, read-out: median GI50): 687 ± 132 nM | Regressions CR (NCI-N87 tumors; [2]): CR: 0 | Regressions PR (NCI-N87 tumors; [2]): PR: 0, | Median TTE (NCI-N87 tumors; Group 2 (9 animals): Compound A 12.5 mg/kg p.o. once daily, vs G1 ns): 30.4 days | % TGD (NCI-N87 tumors; [3]): 16% | T-C (NCI-N87 tumors; [3]): 4.2 days | Regressions CR (NCI-N87 tumors; [4]): CR: 0 | Regressions PR (NCI-N87 tumors; [4]): PR: 0, | Median TTE (NCI-N87 tumors; Group 3 (9 animals): Compound A 25 mg/kg p.o. once daily, vs G1 *): 43.5 days | % TGD (NCI-N87 tumors; [5]): 16% | T-C (NCI-N87 tumors; [5]): 17.3 days
